Experimental data taken from patent publication US20080095713A1, “Method of Tumour Imaging” (priority 2004, published 2008).

Experiments:
[1] = test system: R3230AC rat mammary adenocarcinoma; experiment: In vivo ^13C-MR tumour imaging using hyperpolarised ^13C-pyruvate
Procedure: R3230AC is a rat mammary adenocarcinoma that can be maintained in female Fischer 344 rats. To establish the animal tumour model, a frozen vial of R32030 cells containing RPMI 1640, 10% FBS and 10% DMSO was rapidly thawed in 37° C. Thereafter, the cell solution was transferred to FBS and increasing volumes of RPMI 1640 were added. Finally, the cell suspension was transferred to a 25 cm^2 growth flask and put into an incubator at 37° C., 5% CO2. Growth media were changed every other day. At the day of rat infection, removal of cells was carried out either by mechanical force or by means of trypsin. Cells were washed using phosphate buffer lacking calcium and magnesium. Trypsin (0.05% trypsin in 0.02% EDTA) was added for 2-5 min. Then, 5 ml FBS was added and the cells were transferred into a beaker containing RPMI 1640 with FCS and antibiotics (100 IU/ml penicillin, 100 IU/ml streptomycin and 2.5 μg/ml amphotericin B). The cell solution was centrifugated and the cell pellet was resuspended in 20 ml RPMI with FBS and antibiotics, centrifugation and resuspension was repeated. The cells were then aliquoted to vials containing 4×10^6 cells/ml RPMI 1640. To obtain donor tumours, female Fischer 344 rats (Charles River, 180-200 g) were anaesthetised and 0.3 ml of the cell suspension was subcutaneously injected in the inguinal region on both sides. 15 and 22 days later, pieces of tumour were prepared as described in F. A. Burgener et al., Invest Radiol 22/6 (1987), 472-478; S. Saini et al., J. Magn. Reson. 129/1 (1997), 35-43). Two incisions were made on the ventral abdomen of recipient female Fischer rats. A tumour piece was inserted into each pocket and the incisions were closed. Rats were brought to imaging 12-14 days after tumour engrafting.
Weighed rats were anaesthetised using isoflurane (2-3%) and kept on a heated table to ensure a body temperature of about 37° C. A catheter was introduced into the tail vein and into the arteria carotis communis sinistra. The rats were transported to the MR machine and placed on a home-built pad that was heated to approx. 37° C. by means of circulating FC-104 Fluorinert. This liquid will not give rise to background signals in ^1H- and ^13C-MR imaging. Anaesthesia was continued by means of 1-2% isoflurane delivered via a long tube to an open-breathing system at a rate of 0.4 L/min. […]
Based on the proton frequency found by the MR system the MR frequency for ^13C1-alanine was calculated according to the following equation: […]
The frequency calculated positioned the MR signal arising from ^13C1-alanine on resonance with ^13C1-lactate on the left and ^13C1-pyruvate resonating on the right of ^13C1-alanine. […]

[2] = Properties of the injected ^13C1-pyruvate composition at time of injection; type: physicochemical
Excerpt: The frequency calculated positioned the MR signal arising from ^13C1-alanine on resonance with ^13C1-lactate on the left and ^13C1-pyruvate resonating on the right of ^13C1-alanine. An unlocalised MR spectroscopy sequence was run to ensure that the 13C-MR coil and the system MR frequency had been set up correctly. The ^13C-image location was positioned to cover the tumour (slice thickness 10 mm, in plane pixel size 5×5 mm^2). In the reconstruction phase, the image data was zero-filled to result in 2.5×2.5×10 mm^3 resolution. ^13C1-pyruvate in TRIS buffer (90 mM) was injected in a dose of 10 ml/kg during a period of 12 s with a minimum volume of 2 ml into the tail vein and 30 s after the start of the injection (i.e. 18 s after finishing the injection), the chemical shift ^13C-MR sequence was started.
In total 30 different tumours were imaged in 18 rats. 1 rat failed and 3 tumours failed the biological criteria described in the preceding paragraph 5.5. […] The average polarisation of ^13C1-pyruvate at the time of injection was 21.2±2.9% (mean ±SD) and the pH was 8.08±0.14 (mean±SD).

[3] = DNP polarisation, solid-state ^13C-NMR (enhanced vs thermal equilibrium signal); type: physicochemical; settings: 20 mM Tris(8-carboxy-2,2,6,6-tetra(hydroxyethoxy)methyl-benzo[1,2-d:4,5-d′]bis(1,3)dithiole-4-yl)methyl sodium salt, 1.2 K, 3.35 T, 93.950 GHz
Procedure: A 20 mM solution was prepared by dissolving Tris(8-carboxy-2,2,6,6-tetra(hydroxyethoxy)methyl-benzo [1,2-d:4,5-d′]-bis-(1,3)-dithiole-4-yl)methyl sodium salt in ^13C1-pyruvic acid (83.1 mg). The sample was mixed to homogeneity, placed in a sample cup and inserted in the DNP polariser. The sample was polarised under DNP conditions at 1.2 K in a 3.35 T magnetic field under irradiation with microwave (93.950 GHz). The ^13C-NMR signal from the sample was acquired using a Varian Inova-200 NMR spectrometer. The DNP enhancement was calculated from a measurement of the thermal equilibrium ^13C-NMR signal and the enhanced NMR signal. 16% ^13C polarisation was obtained.

[4] = T1 relaxation of ^13C-pyruvate in human full blood; type: physicochemical; settings: human full blood at 37° C.
Excerpt: The amount of alanine, bicarbonate and lactate is dependent on the metabolic status of the tissue under investigation.

[5] = DNP polarisation, dissolution and liquid-state ^13C-NMR assessment of polarisation; type: physicochemical; settings: 1.2 K, 3.35 T
Procedure: A 20 mM solution was prepared by dissolving 5.0 mg of the radical of Example 1 in ^13C1-pyruvic acid (164 μl). The sample was mixed to homogeneity and an aliquot of the solution (41 mg) was placed in a sample cup and inserted in the DNP polariser.
The sample was polarised under DNP conditions at 1.2 K in a 3.35 T magnetic field under irradiation with microwave (93.950 GHz). After 2 hours the polarisation was stopped and the sample was dissolved using a dissolution device according to WO-A-02/37132 in an aqueous solution of sodium hydroxide and tris(hydroxymethyl)-aminomethane (TRIS) to provide a neutral solution of hyperpolarized sodium^13C1-pyruvate. The dissolved sample was rapidly analysed with ^13C-NMR to assess the polarisation and a 19.0 % ^13C polarisation was obtained.
A 15 mM solution was prepared by dissolving the radical of Example 1 (209.1 mg) in a mixture of ^13C1-pyruvic acid (553 mg) and unlabelled pyruvic acid (10.505 g). […]
The sample was polarised under DNP conditions at 1.2 K in a 3.35 T magnetic field under irradiation with microwave (93.950 GHz). […] The filtered solution was rapidly analysed with ^13C-NMR to assess the polarisation, 16.5% ^13C polarisation was obtained. The residual radical concentration was subsequently analysed with a UV spectrophotometer at 469 nm and was determined to be below the detection limit of 0.1 μM.

[6] = rat, i.v. tail vein 10 ml/kg, imaging 30 s after start of injection

Structure (SMILES): CC(=O)[13C](=O)O [^13C1-pyruvate]
- overall rate of success ([1]; discrimination of tumour and healthy tissue, 26 out of 26 tumours): 100%
- metabolic contrast in the tumour area, lactate signal [1, 6]: 24 out of 26
- metabolic contrast in the tumour area, lactate signal, alanine corrected [1, 6]: 26 out of 26
- metabolic contrast in the tumour area, lactate signal, pyruvate corrected [1, 6]: 26 out of 26
- average polarisation at the time of injection ([2]; mean ±SD, ^13C1-pyruvate in TRIS buffer (90 mM)): 21.2±2.9%
- pH ([2]; mean±SD, injected composition): 8.08±0.14

Structure (SMILES): CC(=O)[13C](=O)O [^13C1-pyruvic acid]
- ^13C polarisation [3]: 16%

Structure (SMILES): CC(=O)[13C](=O)O [^13C-pyruvate]
- T1 relaxation [4]: about 42 s

Structure (SMILES): CC(=O)[13C](=O)[O-].[Na+] [sodium ^13C1-pyruvate]
- ^13C polarisation ([5]; 15 mM radical of Example 1 in ^13C1-pyruvic acid/unlabelled pyruvic acid, 4 hours, dissolved NaOH/TRIS, 0.5 M pyruvate, radical removed on C18 column): 16.5%
- ^13C polarisation ([5]; 20 mM radical of Example 1 in ^13C1-pyruvic acid, 93.950 GHz, 2 hours, dissolved in NaOH/TRIS, liquid ^13C-NMR): 19.0%
